Laboratory results as given in the NIST ThermoML archive (doi:10.1016/j.jct.2008.09.018).

How the values were obtained:
[1] = Liquid; for mass density: Vibrating tube method; for speed of sound: Pulse-echo method; for viscosity: Capillary tube (Ostwald / Ubbelohde) method
[2] = refractive index (Na D-line) (dimensionless); conditions: 298.15 K; 101.33 kPa; Liquid; Standard Abbe refractometry
[3] = xn = mol fraction of the nth substance listed; conditions: 101 kPa, Liquid, x1 = 1; for speed of sound: Pulse-echo method; for viscosity: Capillary tube (Ostwald / Ubbelohde) method; for mass density: Vibrating tube method

OCCO [1,2-ethanediol]
[1]
Conditions	mass density [kg/m3]	speed of sound [m/s]	viscosity [mPa·s]
283.15 K, 101.33 kPa	1120.32	–	–
285.64 K, 101.33 kPa	1118.6	–	–
290.64 K, 101.33 kPa	1115.12	–	–
293.14 K, 101.33 kPa	1113.37	–	–
293.15 K, 101 kPa	–	1666.7	–
295.64 K, 101.33 kPa	1111.62	–	–
298.15 K, 101.33 kPa	–	1654.9	16.95
300.65 K, 101.33 kPa	1108.12	–	–
303.15 K, 101 kPa	1106.46	1643.1	13.83
303.15 K, 101.33 kPa	1106.37	–	–
305.64 K, 101.33 kPa	1104.61	–	–
308.15 K, 101 kPa	–	1631.2	11.44
310.65 K, 101.33 kPa	1101.07	–	–
313.14 K, 101.33 kPa	1099.3	–	–
313.15 K, 101 kPa	1099.23	1619.3	9.565
315.65 K, 101.33 kPa	1097.52	–	–
320.64 K, 101.33 kPa	1093.95	–	–
323.15 K, 101.33 kPa	1092.15	–	–

Conditions	refractive index
[2]	1.4307

OCCO [1,2-ethanediol] + CCCCCCCCCO
[3]
Conditions	mass density [kg/m3]	speed of sound [m/s]	viscosity [mPa·s]
293.15 K	–	1666.7	–
298.15 K	–	1654.9	16.95
303.15 K	1106.46	1643.1	13.83
308.15 K	–	1631.2	11.44
313.15 K	1099.23	1619.3	9.565

CCCCCCCCCO [nonan-1-ol]
[1]
Conditions	mass density [kg/m3]	speed of sound [m/s]	viscosity [mPa·s]
283.15 K, 101.33 kPa	834.614	–	–
285.64 K, 101.33 kPa	832.923	–	–
288.15 K, 101.33 kPa	831.224	–	–
290.65 K, 101.33 kPa	829.521	–	–
293.14 K, 101.33 kPa	827.816	–	–
293.15 K, 101 kPa	–	1381.6	–
295.64 K, 101.33 kPa	826.106	–	–
298.14 K, 101.33 kPa	824.391	–	–
298.15 K, 101.33 kPa	824.48	1364.4	9.494
300.65 K, 101.33 kPa	822.671	–	–
303.14 K, 101.33 kPa	820.949	–	–
303.15 K, 101 kPa	821.05	1347.4	7.994
305.64 K, 101.33 kPa	819.22	–	–
308.14 K, 101.33 kPa	817.486	–	–
308.15 K, 101 kPa	817.57	1330.5	6.713
310.64 K, 101.33 kPa	815.748	–	–
313.15 K, 101 kPa	814.19	1313.6	5.657
313.15 K, 101.33 kPa	814.001	–	–
315.65 K, 101.33 kPa	812.251	–	–
318.15 K, 101.33 kPa	810.496	–	–
320.65 K, 101.33 kPa	808.73	–	–
323.15 K, 101.33 kPa	806.96	–	–

Conditions	refractive index
[2]	1.4323
